Experimental findings from patent publication US12091399B2, “Phenyltetrazole derivatives as plasma kallikrein inhibitors” (Boehringer Ingelheim International GmbH, priority 2018, dated 2024) are described below.

Assay type in all cases: biochemical
In assay [1] the target is T1, Human PKK (Homo sapiens (Human), UniProt P03952). Description: Inhibition of PKK using an endpoint assay (human PKK). The following applies: 1 h at rt, 0.10 μM H-Pro-Phe-Arg-AMC. The method, then: (§1) The ability of compounds of formula (I) to inhibit plasma kallikrein (PKK), Factor XIIa (FXIIa), Factor XIa (FXIa), Factor Xa (FXa), Factor IIa (alpha-thrombin; FIIa), plasmin, trypsin, tissue kallikrein 1 (TK1), Factor Vila (FVIIa), or FVIIa complexed with Tissue Factor, phospholipids and CaCl2) (FVIIa/TF/PL/CaCl2) was determined using the following biochemical assays in assay buffer (100 mM Tris, 150 mM NaCL, adjusted to a pH of 7.8 with HCl, and containing 0.1% (w/v) BSA and 0.05% (v/v) Tween20) in the presence of 1% (v/v) DMSO:
Subsequently, PPACK II (Calbiochem) was added as a stop solution to achieve a final concentration of 1 μM and fluorescence was measured using an Envision Reader (PerkinElmer) with the wavelength excitation setting of 355 nm and the wavelength emission setting of 460 nm. The number of the compound corresponds to the number of the Example in the experimental section.

Assay [2] concerns the target PKK in kaolin activated human platelet poor plasma (Homo sapiens (Human), UniProt P03952). Put plainly: Inhibition of PKK in kaolin activated human PPP. The following applies: global fit over 25, 75, 250, 750 μg/mL kaolin, 37° C. The method, then: Platelet poor plasma (PPP) obtained from human wholeblood, anticoagulated with Na-Citrate, was incubated with various concentrations of the test compound together with either 25, 75, 250, or 750 μg/mL kaolin in assay buffer for 20 min at 37° C. such that for each kaolin dose used a concentration response was obtained for the test compound.
The number of the compound corresponds to the number of the Example in the experimental section.

The target in assay [3] is T1, Human PKK. Put plainly: Inhibition of PKK (Ki), kinetic assay. Conditions: 24° C., 0.25 mM H-Pro-Phe-Arg-AMC, IC50 corrected for KM. The method, then: as §1
Human PKK (1.78 nM or 0.025 U/mL; Enzyme Research Laboratories) was incubated at 24° C. with 0.25 mM fluorogenic substrate H-Pro-Phe-Arg-AMC (11295 from Bachem) and various concentrations of the test compound in assay buffer. Measurements were performed in a kinetic interval every 2nd minute for 16 min using a Spectramax M5 (Molecular Devices) with the following settings of the wavelength excitation of 350 nm and wavelength emission of 450 nm. The number of the compound corresponds to the number of the Example in the experimental section.
(§2) The pIC50 values were then fitted using a four-parametric fitting procedure using GraphPad Prism (version 6; GraphPad Software, Inc.). Respective Ki values were obtained by correction of the IC50 values for the respective KM value of the used substrate (see Table A for the obtained KM values of the used substrates) using the following formula: […]
Where the IC50 is in mol/L and the KM value in mmol/L.

Assay [4] has as its target Human plasmin (Homo sapiens (Human), UniProt P00747). Description: Inhibition of plasmin (Ki). The following applies: substrate KM, enzyme Plasmin. The method, then: as §1
Measurements were performed in a kinetic interval every 2nd minute for 16 min using a Spectramax M5 (Molecular Devices) measuring the optical absorbance at 405 nm.
as §2

pIC50, pKi: −log10 of the molar value. Square brackets hold non-standard residues; d marks the D form. Peptide text beside a SMILES is read from it. * marks the point of attachment. pNA = O=[N+]([O-])c1ccc(N*)cc1

PKK in kaolin activated human platelet poor plasma, sequence (P03952 391-638): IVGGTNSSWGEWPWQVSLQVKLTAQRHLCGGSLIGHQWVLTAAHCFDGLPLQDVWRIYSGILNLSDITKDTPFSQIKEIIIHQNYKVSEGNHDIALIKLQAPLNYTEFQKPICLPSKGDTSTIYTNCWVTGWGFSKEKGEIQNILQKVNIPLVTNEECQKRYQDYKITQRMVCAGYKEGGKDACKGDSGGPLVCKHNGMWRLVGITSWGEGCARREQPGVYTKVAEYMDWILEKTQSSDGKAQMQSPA
PKK in kaolin activated human platelet poor plasma, sequence (P03952 20-390 partner): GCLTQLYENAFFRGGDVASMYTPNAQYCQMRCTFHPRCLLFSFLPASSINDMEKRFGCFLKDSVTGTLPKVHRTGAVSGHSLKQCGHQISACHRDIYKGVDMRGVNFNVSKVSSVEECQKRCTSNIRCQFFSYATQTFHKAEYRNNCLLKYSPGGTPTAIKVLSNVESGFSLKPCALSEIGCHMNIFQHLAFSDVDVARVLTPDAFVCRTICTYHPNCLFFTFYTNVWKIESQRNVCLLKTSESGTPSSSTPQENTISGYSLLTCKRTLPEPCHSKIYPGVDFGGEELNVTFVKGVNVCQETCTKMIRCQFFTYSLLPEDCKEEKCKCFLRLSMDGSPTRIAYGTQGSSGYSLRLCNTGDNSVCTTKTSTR
T1 sequence (P03952 391-638): as the sequence (P03952 391-638) above
T1 sequence (P03952 20-390 partner): as the sequence (P03952 20-390 partner) above
Human plasmin, sequence (P00747 581-810): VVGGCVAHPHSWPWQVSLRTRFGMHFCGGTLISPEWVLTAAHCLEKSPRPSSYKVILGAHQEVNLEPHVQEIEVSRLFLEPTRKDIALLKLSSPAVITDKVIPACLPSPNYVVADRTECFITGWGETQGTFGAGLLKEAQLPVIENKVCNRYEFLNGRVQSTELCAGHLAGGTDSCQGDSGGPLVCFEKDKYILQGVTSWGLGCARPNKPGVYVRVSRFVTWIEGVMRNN
Human plasmin, sequence (P00747 97-580 partner): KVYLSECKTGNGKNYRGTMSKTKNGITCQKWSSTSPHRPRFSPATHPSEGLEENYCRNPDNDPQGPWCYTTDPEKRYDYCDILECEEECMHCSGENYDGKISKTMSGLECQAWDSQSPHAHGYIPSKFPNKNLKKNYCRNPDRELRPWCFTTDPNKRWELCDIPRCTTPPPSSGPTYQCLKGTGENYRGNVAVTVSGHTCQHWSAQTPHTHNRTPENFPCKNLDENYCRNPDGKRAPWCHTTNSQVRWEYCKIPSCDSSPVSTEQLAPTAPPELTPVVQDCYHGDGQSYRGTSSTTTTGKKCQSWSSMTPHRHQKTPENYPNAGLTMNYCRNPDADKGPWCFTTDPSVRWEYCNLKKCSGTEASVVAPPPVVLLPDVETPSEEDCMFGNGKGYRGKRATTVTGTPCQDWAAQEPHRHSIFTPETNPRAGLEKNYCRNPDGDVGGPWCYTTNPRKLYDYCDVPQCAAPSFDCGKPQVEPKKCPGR

For orientation: pIC50 means −log10 of the IC50, conventionally taken in molar units. Read a high pIC50 as a low IC50. The term IC90 denotes the concentration needed for an effect of 90%. For orientation: pKi means −log10 of the Ki, conventionally taken in molar units. The low end stands for a high Ki, the high end for a low Ki. `Cc1nc(N2CC3CC3C2)ccc1Cn1cc(C(=O)NCc2cc(Cl)ccc2-n2cnnn2)cn1` (stereo not shown) [Example 1, 1-[(6-{3-azabicyclo[3.1.0]hexan-3-yl}-2-methylpyridin-3-yl)methyl]-N-{[5-chloro-2-(1H-1,2,3,4-tetrazol-1-yl)phenyl]-methyl}-1H-pyrazole-4-carboxamide]: the pIC50 in assay [1] was 9.30. In addition, the IC90 in assay [2] came to 202 nM. In assay [3], the pKi was 9.52.

As to `Cc1nc(N2CC3CC3C2)ccc1Cn1cc(C(=O)NCc2cc(Cl)c(F)cc2-n2cnnn2)cn1` (stereo not shown) [Example 2], the negative logarithm of the IC50 (pIC50) in assay [1] was 8.30. Also, the IC90 in assay [2] was found to be 1150 nM. Moreover, in assay [3], the negative logarithm of the Ki (pKi) was 9.10.

Compound `Cc1nc(N2CC3CC3C2)ccc1Cn1cc(C(=O)NCc2c(-n3cnnn3)ccc(Cl)c2F)cn1` (stereo not shown) [Example 3] had a pIC50 in assay [1] of 9.40. Further, in assay [2], the IC90 was 170 nM. In assay [3], this compound showed a negative-log Ki (pKi) of 9.70.

Consider `Cc1ccc(-n2cnnn2)c(CNC(=O)c2cnn(Cc3ccc(N4CC5CC5C4)nc3C)c2)c1` (stereo not shown) [Example 5], for which, in assay [1], the pIC50 is 9.05. The concentration for an effect of 90% (IC90) in assay [2] worked out at 316 nM. In assay [3], this compound showed a negative-log Ki (pKi) of 9.40.

With `Cc1nc(N2CC3C(C2)C3(F)F)ccc1Cn1cc(C(=O)NCc2cc(Cl)ccc2-n2cnnn2)cn1` (stereo not shown) [Example 6], the pIC50 in assay [1] was 9.40. Further, the 90% effect concentration (IC90) in assay [2] was determined as 184 nM.

`Cc1nc(N2CC3CC3C2)ccc1Cn1cc(C(=O)NCc2cc(Cl)ccc2-n2cnnn2)c(C(F)F)n1` (stereo not shown) [Example 9]: in assay [1], the pIC50 was 9.00. The IC90 in assay [2] turned out to be 239 nM. Besides, the pKi in assay [3] was 9.10.

For the compound `COCc1nn(Cc2ccc(N3CC4CC4C3)nc2C)cc1C(=O)NCc1cc(Cl)ccc1-n1cnnn1` (stereo not shown) [Example 13], in assay [1], the negative logarithm of the IC50 (pIC50) is 9.05. Moreover, the concentration for an effect of 90% (IC90) in assay [2] is 396 nM. Also, the pKi in assay [3] is 9.10.

`Cc1nc(N2CC3CC3C2)ccc1Cn1cc(C(=O)NCc2cc(Cl)ccc2-n2cnnn2)c2cncnc21` (stereo not shown) [Example 15] gave a pIC50 in assay [1] of 8.70. Also, the concentration for an effect of 90% (IC90) in assay [2] worked out at 419 nM. This compound had a pKi in assay [3] of 9.15.

Compound `COc1nn(Cc2ccc(N3CC4CC4C3)nc2C)cc1C(=O)NCc1cc(Cl)ccc1-n1cnnn1` (stereo not shown) [Example 21] had a negative-log IC50 (pIC50) in assay [1] of 8.52. Further, the concentration for an effect of 90% (IC90) in assay [2] was 713 nM. Further, in assay [3], the negative logarithm of the Ki (pKi) is 9.00.

For the compound `Cc1nc(N2CC3CC3C2)ccc1Cn1cc(C(=O)NCc2cc(Cl)ccc2-n2cnnn2)c(-c2cnn(C)c2)n1` (stereo not shown) [Example 42], the negative logarithm of the IC50 (pIC50) in assay [1] is 9.22. In assay [2], the 90% effect concentration (IC90) stood at 257 nM. In assay [3], this compound had a pKi of 9.00.

In the case of `O=C(NCc1cc(Cl)ccc1-n1cnnn1)c1cn(Cc2ccc(N3CC4CC4C3)nc2)nc1C(F)F` (stereo not shown) [Example 44], the negative logarithm of the IC50 (pIC50) in assay [1] was 9.00. Besides, the concentration for an effect of 90% (IC90) in assay [2] is 341 nM. Further, the pKi in assay [3] was 9.30.

In turn, `O=C(NCc1cc(Cl)ccc1-n1cnnn1)c1cn(Cc2ccc(N3CC4CC4C3)nc2)c2ncccc12` (stereo not shown) [Example 45] showed a pIC50 in assay [1] of 8.52. Further, in assay [2], the IC90 stood at 106 nM. This compound also gave a negative logarithm of the Ki (pKi) in assay [3] of 9.52.

As for `Cn1cc(-c2nn(Cc3ccc(N4CC5CC5C4)nc3)cc2C(=O)NCc2cc(Cl)ccc2-n2cnnn2)cn1` (stereo not shown) [Example 46], the pIC50 in assay [1] was 9.15. Moreover, the IC90 in assay [2] amounted to 341 nM. For the same compound, in assay [3], the negative-log Ki (pKi) is 9.00.

Consider `COc1nn(Cc2ccc(N3CC4CC4C3)nc2)cc1C(=O)NCc1cc(Cl)ccc1-n1cnnn1` (stereo not shown) [Example 47], for which the pIC50 in assay [1] was 8.52. In addition, the concentration for an effect of 90% (IC90) in assay [2] amounted to 711 nM. In addition, the pKi in assay [3] is 9.15.

`Cc1nc(N2CC3CC3C2)ccc1Cn1cc(C(=O)NCc2cc(Cl)ccc2-n2cnnn2)c(N)n1` (stereo not shown) [Example 48]: the negative logarithm of the IC50 (pIC50) in assay [1] is 9.10. In addition, in assay [2], the concentration for an effect of 90% (IC90) is 316 nM. The compound also gave a pKi in assay [3] of 9.30.

The compound `Cc1nc(N2CC3CC3C2)ccc1Cn1cc(C(=O)NCc2cc(Cl)ccc2-n2cnnn2)c(Br)n1` (stereo not shown) [Example 49] had a pIC50 in assay [1] of 9.00. Further, the 90% effect concentration (IC90) in assay [2] came to 932 nM. The same compound had a negative-log Ki (pKi) in assay [3] of 9.40.

The compound `Nc1nn(Cc2ccc(N3CC4CC4C3)nc2)cc1C(=O)NCc1cc(Cl)ccc1-n1cnnn1` (stereo not shown) [Example 52] showed a pIC50 in assay [1] of 9.22. In addition, the concentration for an effect of 90% (IC90) in assay [2] was found to be 103 nM. In assay [3], this compound had a pKi of 9.40.

In assay [1], `Cc1nc(N2CC3(C2)CC3(F)F)ccc1Cn1cc(C(=O)NCc2cc(Cl)ccc2-n2cnnn2)cn1` [Example 54] had a pIC50 of 8.52. Further, in assay [2], the 90% effect concentration (IC90) stood at 969 nM. In addition, in assay [3], the pKi is 9.00.

For the compound `Cc1nc(N2CC3(CCC3)C2)ccc1Cn1cc(C(=O)NCc2cc(Cl)ccc2-n2cnnn2)cn1` [Example 59, 1-[(6-{2-azaspiro[3.3]heptan-2-yl}-2-methylpyridin-3-yl)methyl]-N-{[5-chloro-2-(1H-1,2,3,4-tetrazol-1-yl)phenyl]methyl}-1H-pyrazole-4-carboxamide], the pIC50 in assay [1] is 9.15. The IC90 in assay [2] was found to be 847 nM. The same compound showed a pKi in assay [3] of 9.52.

Compound `Cc1nc(N2CCC3(CCC3)C2)ccc1Cn1cc(C(=O)NCc2cc(Cl)ccc2-n2cnnn2)cn1` [Example 60, 1-[(6-{6-azaspiro[3.4]octan-6-yl}-2-methylpyridin-3-yl)methyl]-N-{[5-chloro-2-(1H-1,2,3,4-tetrazol-1-yl)phenyl]methyl}-1H-pyrazole-4-carboxamide] gave a negative-log IC50 (pIC50) in assay [1] of 8.40. In assay [2], the IC90 turned out to be 4070 nM. The compound also had a negative-log Ki (pKi) in assay [3] of 8.70.

Consider `Cc1nc(N2CC3(CC3)C2)ccc1Cn1cc(C(=O)NCc2cc(Cl)ccc2-n2cnnn2)cn1` [Example 63, 1-[(6-{5-azaspiro[2.3]hexan-5-yl}-2-methylpyridin-3-yl)methyl]-N-{[5-chloro-2-(1H-1,2,3,4-tetrazol-1-yl)phenyl]methyl}-1H-pyrazole-4-carboxamide], for which the negative-log IC50 (pIC50) in assay [1] is 9.30. For the same compound, the IC90 in assay [2] is 209 nM. The negative-log Ki (pKi) in assay [3] is 9.52.

In assay [1], `Cc1nc(N2C[C@@H]3[C@H](C)[C@@H]3C2)ccc1Cn1cc(C(=O)NCc2cc(Cl)ccc2-n2cnnn2)cn1` [Example 87] showed a negative-log IC50 (pIC50) of 9.05. In assay [2], the concentration for an effect of 90% (IC90) is 252 nM. The pKi in assay [3] was 9.10.

Compound `Cc1nc(N2CC3(CCCN3)C2)ccc1Cn1cc(C(=O)NCc2cc(Cl)ccc2-n2cnnn2)cn1` [Example 91, N-{[5-chloro-2-(1H-1,2,3,4-tetrazol-1-yl)phenyl]methyl}-1-[(6-{2,5-diazaspiro[3.4]octan-2-yl}-2-methylpyridin-3-yl)methyl]-1H-pyrazole-4-carboxamide] showed a pIC50 in assay [1] of 6.91.

On to `Cc1nc(N2C[C@@H]3CCN[C@@H]3C2)ccc1Cn1cc(C(=O)NCc2cc(Cl)ccc2-n2cnnn2)cn1` [Example 92, 1-({6-[(3aS,6aS)-octahydropyrrolo[3,4-b]pyrrol-5-yl]-2-methylpyridin-3-yl}methyl)-N-{[5-chloro-2-(1H-1,2,3,4-tetrazol-1-yl)phenyl]methyl}-1H-pyrazole-4-carboxamide], for which the pIC50 in assay [1] was 6.81. The pIC50 values of the last two compounds are within 0.2 log units of each other.

In assay [1], `Cc1nc(N2CCC3(CNC3)C2)ccc1Cn1cc(C(=O)NCc2cc(Cl)ccc2-n2cnnn2)cn1` [Example 93, N-{[5-chloro-2-(1H-1,2,3,4-tetrazol-1-yl)phenyl]methyl}-1-[(6-{2,6-diazaspiro[3.4]octan-6-yl}-2-methylpyridin-3-yl)methyl]-1H-pyrazole-4-carboxamide] gave a pIC50 of 6.54. Compared with the last compound, the pIC50 is 0.27 log units lower.

`Cc1nc(N2CC3(CC3)C2)ccc1Cn1cc(C(=O)NCc2c(F)cccc2-n2cnnn2)cn1` [Example 94, 1-[(6-{5-azaspiro[2.3]hexan-5-yl}-2-methylpyridin-3-yl)methyl]-N-{[2-fluoro-6-(1H-1,2,3,4-tetrazol-1-yl)phenyl]methyl}-1H-pyrazole-4-carboxamide] gave a negative logarithm of the IC50 (pIC50) in assay [1] of 8.40.

Usually Km stands for the concentration of substrate that gives half-maximal velocity. With `CC(C)C[C@H](NC(=O)[C@H](N)C(C)C)C(=O)N[C@@H](CCCCN)C(=O)Nc1ccc([N+](=O)[O-])cc1` [Example S2251] (H-[dV]-Leu-Lys-pNA), the Km in assay [4] is 1450 µM.
